Values of other authors, collected in US9138422B2, “Method of using antimycin A to downregulate Wnt/b-catenin pathway to treat gefitinib resistant cancer” (priority 2011, dated 2015).
Read-outs that look alike come from different tables or passages of the source.

Test system: NSCLC (lung adenocarcinoma) patients
Settings: cited from earlier work

| SMILES | median progression free survival (first-line treatment, sensitive EGFR mutated patients) | median progression free survival (second line treatment after chemotherapy) [months] |
| --- | --- | --- |
| COc1cc2ncnc(Nc3ccc(F)c(Cl)c3)c2cc1OCCCN1CCOCC1 [gefitinib] | about 10 months | – |
| C#Cc1cccc(Nc2ncnc3cc(OCCOC)c(OCCOC)cc23)c1 [erlotinib] | – | 2.2 |
